Test results as given in ChEMBL document CHEMBL1150735, “Phytochemical and pharmacological investigation of the cardioactive constituents of the leaf of Dysoxylum lenticellare” (J Nat Prod, 1987).

What was measured:
[1] = Cardiovascular activity in spontaneously beating rat right atria assessed as change in rate of contraction at 80 uM by microdynameter relative to control; format: functional; conditions: Right cardiac atrium
[2] = Cardiovascular activity in spontaneously beating rat right atria assessed as change in amplitude of contraction at 80 uM by microdynameter relative to control; format: functional; conditions: Right cardiac atrium
[3] = Solubility in water; format: physicochemical; conditions: buffer

Row | Compound | Activity [1] [%] | Activity [2] [%] | solubility [3]
1 | CO[C@H]1CC=C2CCN3CCC(O)c4cc5c(cc4[C@]23C1)OCO5 (stereo partly drawn) | -6 | 11.5 | 
2 | C=C1C[C@]23CC[C@@H]4C(C)(C)CCC[C@@]4(C)[C@@H]2CC[C@H]1C3 [PHYLLOCLADENE] |  |  | Insoluble
3 | COc1cc2c(cc1OC)[C@@H](CCc1ccc3c(c1)OCO3)N(C)CC2 | -6.4 | 11.8 | 
4 | COc1ccc(CC[C@@H]2c3cc(OC)c(OC)cc3CCN2C)cc1OC | -6.7 | 16.3 | 
5 | COc1cc2c(cc1OC)-c1cc3c(cc1CCCN(C)CC2)OCO3 [DYSAZECINE] |  |  | Insoluble
